Assay results reported in US5510332A, “Process to inhibit binding of the integrin α4 62 1 to VCAM-1 or fibronectin and linear peptides therefor” (priority 1994, dated 1996).
Where a SMILES comes first, the peptide text is derived from it. Where no end group is shown, it is not given here.

The compounds below were run against T1, binding of the integrin α4 β1 to VCAM (Homo sapiens, UniProt P05556+P13612) (assay: Cell-cell assay: 35S-labelled Ramos cells binding to VCAM expressing CHO cells). Conditions: single concentration at which SEQ ID NO:9 gives approximately 50% inhibition of adhesion; SEQ ID NO:9 = 1.00; >2.00 indicates little or no inhibition of VCAM-α4 β1 binding.
T1 construct: endogenous in cells; host or cells: Ramos (human B-cell line) for endogenous α4β1; CHO cells stably transfected with human VCAM cDNA for the counter-receptor
Assay type: cell-based
Text: The VCAM-1 binding assays involved assessing the ability of cells that express α4 β1 to bind cells expressing VCAM (cell-cell assay) or to bind purified VCAM protein (cell-protein assay). The integrin-expressing cell types used in these assays included the human B-cell line, Ramos, and the human promyelocytic line, HL-60. The cell-cell assay was used to compare the relative potency of peptides at a single dose. The cell-protein assay was used to generate dose response curves and determine IC50 values. A human VCAM cDNA was amplified by the polymerase chain reaction (PCR) from cDNA reverse transcribed from RNA isolated from human umbilical vein endothelial cells. The VCAM cDNA was ligated into a mammalian expression vector and electroporated into chinese hamster ovary (CHO) cells. Cells were grown in G418 selective media and clones expressing high levels of VCAM were selected by FACS analysis. VCAM expressing CHO cells and nontransfected CHO cells were plated in 48 well cluster dishes at a density of 50,000 cells/well 24 hour prior to assay. The dishes were washed with binding buffer (DMEM, 1% BSA, 1.0 mM MnCl2, 0.02% sodium azide, pH 7.4) immediately prior to assay. […] Unbound cells were removed by washing with binding buffer and the remaining bound cells were lysed with 50 mM Tris, pH 8.0, 150 mM NaCl, 1% SDS and transferred to scintillation vials for quantitation.

T1 sequence (P13612 34-1032): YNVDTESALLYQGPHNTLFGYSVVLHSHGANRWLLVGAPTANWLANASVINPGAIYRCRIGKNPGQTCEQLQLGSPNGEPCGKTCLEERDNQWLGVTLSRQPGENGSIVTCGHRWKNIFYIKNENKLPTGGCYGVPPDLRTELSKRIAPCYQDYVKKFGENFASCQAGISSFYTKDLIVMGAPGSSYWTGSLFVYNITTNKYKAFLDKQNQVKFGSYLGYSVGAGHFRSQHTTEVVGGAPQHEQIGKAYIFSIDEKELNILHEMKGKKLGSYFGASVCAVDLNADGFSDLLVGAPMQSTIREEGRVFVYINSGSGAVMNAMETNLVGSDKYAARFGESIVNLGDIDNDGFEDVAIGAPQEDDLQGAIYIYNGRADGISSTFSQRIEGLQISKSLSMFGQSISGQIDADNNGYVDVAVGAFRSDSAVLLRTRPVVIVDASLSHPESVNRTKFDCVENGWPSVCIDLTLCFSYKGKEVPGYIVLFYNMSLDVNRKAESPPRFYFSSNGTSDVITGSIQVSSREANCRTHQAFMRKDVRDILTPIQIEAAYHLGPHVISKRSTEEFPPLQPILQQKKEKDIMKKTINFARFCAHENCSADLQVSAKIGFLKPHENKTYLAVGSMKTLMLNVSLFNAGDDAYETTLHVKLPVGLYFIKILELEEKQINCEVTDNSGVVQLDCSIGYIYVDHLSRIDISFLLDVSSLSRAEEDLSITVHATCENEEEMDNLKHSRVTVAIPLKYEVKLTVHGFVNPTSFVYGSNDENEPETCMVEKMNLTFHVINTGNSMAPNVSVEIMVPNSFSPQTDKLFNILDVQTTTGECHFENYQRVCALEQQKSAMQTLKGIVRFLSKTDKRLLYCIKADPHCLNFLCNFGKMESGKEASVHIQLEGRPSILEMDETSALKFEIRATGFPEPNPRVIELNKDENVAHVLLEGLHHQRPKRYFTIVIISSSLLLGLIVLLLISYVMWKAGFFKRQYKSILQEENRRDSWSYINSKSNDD
T1 sequence (P05556 21-798): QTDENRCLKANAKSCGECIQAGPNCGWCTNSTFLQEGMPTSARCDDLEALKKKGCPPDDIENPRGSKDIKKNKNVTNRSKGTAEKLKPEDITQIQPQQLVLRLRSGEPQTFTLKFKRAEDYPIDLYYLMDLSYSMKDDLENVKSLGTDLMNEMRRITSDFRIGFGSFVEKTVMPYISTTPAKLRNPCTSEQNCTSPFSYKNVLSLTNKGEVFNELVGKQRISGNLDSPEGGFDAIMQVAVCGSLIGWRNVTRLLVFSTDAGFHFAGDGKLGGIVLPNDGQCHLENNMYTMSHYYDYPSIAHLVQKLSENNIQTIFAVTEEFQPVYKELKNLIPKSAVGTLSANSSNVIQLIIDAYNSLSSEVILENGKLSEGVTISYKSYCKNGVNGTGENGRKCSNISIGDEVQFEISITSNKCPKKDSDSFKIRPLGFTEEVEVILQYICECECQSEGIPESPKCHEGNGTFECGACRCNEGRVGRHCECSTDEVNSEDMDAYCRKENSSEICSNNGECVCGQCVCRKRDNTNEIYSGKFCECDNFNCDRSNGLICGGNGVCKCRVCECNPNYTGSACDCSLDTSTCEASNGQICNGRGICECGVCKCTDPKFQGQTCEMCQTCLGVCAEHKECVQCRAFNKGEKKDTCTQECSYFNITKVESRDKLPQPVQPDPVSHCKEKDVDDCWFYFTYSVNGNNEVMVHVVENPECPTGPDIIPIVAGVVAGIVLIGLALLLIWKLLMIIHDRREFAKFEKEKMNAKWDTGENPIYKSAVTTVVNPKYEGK

Row | relative quantity of adhered cells in relationship to peptide SEQ ID NO:9 | Compound
1 | 1.47 | GPAWLDVP-NH2 [SEQ ID NO:9 E→A, Gly-Pro-Ala-Trp-Leu-Asp-Val-Pro-amide]
2 | 1.49 | GPCWLDVP-NH2 [SEQ ID NO:9 E→C, Gly-Pro-Cys-Trp-Leu-Asp-Val-Pro-amide]
3 | 1.54 | GPDWLDVP-NH2 [SEQ ID NO:9 E→D, Gly-Pro-Asp-Trp-Leu-Asp-Val-Pro-amide]
4 | 1.64 | GPEALDVP-NH2 [SEQ ID NO:9 W→A, Gly-Pro-Glu-Ala-Leu-Asp-Val-Pro-amide]
5 | 1.45 | GPECLDVP-NH2 [SEQ ID NO:9 W→C, Gly-Pro-Glu-Cys-Leu-Asp-Val-Pro-amide]
6 | 1.62 | GPEDLDVP-NH2 [SEQ ID NO:9 W→D, Gly-Pro-Glu-Asp-Leu-Asp-Val-Pro-amide]
7 | 1.78 | GPEWLCVP-NH2 [SEQ ID NO:9 D→C, Gly-Pro-Glu-Trp-Leu-Cys-Val-Pro-amide]
8 | 2.39 | GPEWLDDP-NH2 [SEQ ID NO:9 V→D, Gly-Pro-Glu-Trp-Leu-Asp-Asp-Pro-amide]
9 | 2.33 | GPEWLDEP-NH2 [SEQ ID NO:9 V→E, Gly-Pro-Glu-Trp-Leu-Asp-Glu-Pro-amide]
10 | 1.13 | GPEWLDFP-NH2 [SEQ ID NO:9 V→F, Gly-Pro-Glu-Trp-Leu-Asp-Phe-Pro-amide]
11 | 1.67 | GPEWLDGP-NH2 [SEQ ID NO:9 V→G]
12 | 1.77 | GPEWLDHP-NH2 [SEQ ID NO:9 V→H]
13 | 1.81 | GPEWLDIP-NH2 [SEQ ID NO:9 V→I]
14 | 2.68 | GPEWLDKP-NH2 [SEQ ID NO:9 V→K]
15 | 1.54 | GPEWLDLP-NH2 [SEQ ID NO:9 V→L]
16 | 2.46 | GPEWLDMP-NH2 [SEQ ID NO:9 V→M]
17 | 2.31 | GPEWLDNP-NH2 [SEQ ID NO:9 V→N]
18 | 2.45 | GPEWLDPP-NH2 [SEQ ID NO:9 V→P]
19 | 1.97 | GPEWLDQP-NH2 [SEQ ID NO:9 V→Q]
20 | 1.52 | GPEWLDRP-NH2 [SEQ ID NO:9 V→R]
21 | 1.54 | GPEWLDSP-NH2 [SEQ ID NO:9 V→S]
22 | 1.08 | GPEWLDWP-NH2 [SEQ ID NO:9 V→W, Gly-Pro-Glu-Trp-Leu-Asp-Trp-Pro-amide]
23 | 0.80 | GPEWLDYP-NH2 [SEQ ID NO:9 V→Y, Gly-Pro-Glu-Trp-Leu-Asp-Tyr-Pro-amide]
24 | 1.77 | GPEWLEVP-NH2 [SEQ ID NO:9 D→E, Gly-Pro-Glu-Trp-Leu-Glu-Val-Pro-amide]

Row | relative quantity of adhered cells in relationship to peptide SEQ ID NO:9 | Compound
25 | 1.94 | GPEWLFVP-NH2 [SEQ ID NO:9 D→F, Gly-Pro-GluoTrp-Leu-Phe-Val-Pro-amide]
26 | 1.74 | GPEWLHVP-NH2 [SEQ ID NO:9 D→H, Gly-Pro-Glu-Trp-Leu-His-Val-Pro-amide]
27 | 1.74 | GPEWLKVP-NH2 [SEQ ID NO:9 D→K, Gly-Pro-Glu-Trp-Leu-Lys-Val-Pro-amide]
28 | 1.76 | GPEWLMVP-NH2 [SEQ ID NO:9 D→M, Gly-Pro-Glu-Trp-Leu-Met-Val-Pro-amide]
29 | 2.19 | GPEWLPVP-NH2 [SEQ ID NO:9 D→P, Gly-Pro-Glu-Trp-Leu-Pro-Val-Pro-amide]
30 | 2.35 | GPEWLQVP-NH2 [SEQ ID NO:9 D→Q, Gly-Pro-Glu-Trp-Leu-Gln-Val-Pro-amide]
31 | 2.14 | GPEWLRVP-NH2 [SEQ ID NO:9 D→R, Gly-Pro-Glu-Trp-Leu-Arg-Val-Pro-amide]
32 | 1.64 | GPFWLDVP-NH2 [SEQ ID NO:9 E→F, Gly-Pro-Phe-Trp-Leu-Asp-Val-Pro-amide]
33 | 1.33 | GPGWLDVP-NH2 [SEQ ID NO:9 E→G, Gly-Pro-Gly-Trp-Leu-Asp-Val-Pro-amide]
34 | 1.23 | GPHWLDVP-NH2 [SEQ ID NO:9 E→H, Gly-Pro-His-Trp-Leu-Asp-Val-Pro-amide]
35 | 1.44 | GPIWLDVP-NH2 [SEQ ID NO:9 E→I, Gly-Pro-Ile-Trp-Leu-Asp-Val-Pro-amide]
36 | 1.34 | GPKWLDVP-NH2 [SEQ ID NO:9 E→K, Gly-Pro-Lys-Trp-Leu-Asp-Val-Pro-amide]
37 | 1.62 | GPLWLDVP-NH2 [SEQ ID NO:9 E→L, Gly-Pro-Leu-Trp-Leu-Asp-Val-Pro-amide]
38 | 1.42 | GPMWLDVP-NH2 [SEQ ID NO:9 E→M, Gly-Pro-Met-Trp-Leu-Asp-Val-Pro-amide]
39 | 0.94 | GPNWLDVP-NH2 [SEQ ID NO:9 E→N, Gly-Pro-Asn-Trp-Leu-Asp-Val-Pro-amide]
40 | 0.98 | GPPWLDVP-NH2 [SEQ ID NO:9 E→P, Gly-Pro-Pro-Trp-Leu-Asp-Val-Pro-amide]
41 | 0.93 | GPQWLDVP-NH2 [SEQ ID NO:9 E→Q, Gly-ProoGln-Trp-Leu-Asp-Val-Pro-amide]
42 | 1.52 | GPRWLDVP-NH2 [SEQ ID NO:9 E→R, Gly-Pro-Arg-Trp-Leu-Asp-Val-Pro-amide]
43 | 0.85 | GPSWLDVP-NH2 [SEQ ID NO:9 E→S, Gly-Pro-Ser-Trp-Leu-Asp-Val-Pro-amide]
44 | 0.98 | GPTWLDVP-NH2 [SEQ ID NO:9 E→T, Gly-Pro-Thr-Trp-Leu-Asp-Val-Pro-amide]
45 | 1.04 | GPVWLDVP-NH2 [SEQ ID NO:9 E→V, Gly-Pro-Val-Trp-Leu-Asp-Val-Pro-amide]
46 | 1.17 | GPWWLDVP-NH2 [SEQ ID NO:9 E→W, Gly-Pro-Trp-Trp-Leu-Asp-Val-Pro-amide]
47 | 0.96 | GPYWLDVP-NH2 [SEQ ID NO:9 E→Y, Gly-Pro-Tyr-Trp-Leu-Asp-Val-Pro-amide]

What follows are compounds tested against T2, binding of α4 β1 integrin to VCAM-1 (Homo sapiens, UniProt P05556+P13612) (assay: Cell-protein assay: calcein-labelled Ramos cells binding to VCAM-mouse IgG fusion protein on magnetic beads). Conditions: less than about 100; assay format not stated.
T2 construct: endogenous in cells; host or cells: Ramos (human B-cell line) for endogenous α4β1; the VCAM-mouse IgG fusion was made in house, secreted from transfected COS cells and captured on goat anti-mouse IgG Dynal beads
Assay type: cell-based
Text: The VCAM-1 binding assays involved assessing the ability of cells that express α4 β1 to bind cells expressing VCAM (cell-cell assay) or to bind purified VCAM protein (cell-protein assay). The integrin-expressing cell types used in these assays included the human B-cell line, Ramos, and the human promyelocytic line, HL-60. The cell-cell assay was used to compare the relative potency of peptides at a single dose. The cell-protein assay was used to generate dose response curves and determine IC50 values.
An expression vector was designed such that a region of VCAM known to bind the integrin was-expressed as a fusion protein with mouse IgG. A cDNA containing the two N-terminal domains of human VCAM was generated by the polymerase chain reaction (PCR) from a full length VCAM cDNA. Similarly, a cDNA containing the hinge, CH2 and CH3 regions of mouse IgG2A was amplified by PCR from cDNA made from total RNA isolated from the hybridoma cell line 402C10. The VCAM cDNA was ligated to the mouse IgG cDNA and cloned into a mammalian expression vector. […] The media was collected and active protein was purified by immunoprecipitation using Dynal magnetic polystyrene beads coated with goat anti-mouse IgG. Following immunoprecipitation, the beads bound Ramos cells that expressed the integrin α4 β1.
Ramos cells were fluorescently labeled with calcein AM (Molecular Probes) and resuspended in 1 ml of binding buffer (Hanks' balanced salt solution, pH 7.4, 1.0 mM CaCl2, 1.0 mM MgCl2 and 1.0 mM MnCl2). The beads (10 μl, 4×10^6 beads/ml) were placed in wells of a 96-well microtiter dish with 10 μl of peptide at various concentrations. The beads were incubated with 10 μl of labeled cells (10^7 cells/ml) for 10 min at room temperature. Following immobilization of the beads onto the plastic with a magnet, unbound cells were removed by washing three times with binding buffer. The remaining bound cells were lysed in 50 mM Tris, pH 7.4, 5.0 mM EDTA, 1.0% NP-40 and quantitated by fluorimetry using a Millipore Cytofluor 2350 fluorimeter. Dose response curves were calculated and IC50 values determined. Peptides having the amino acid residue sequences of SEQ ID NOs:8-102 were tested for their ability to inhibit the binding of α4 β1 integrin to VCAM-1.

T2 sequence (P13612 34-1032): as the sequence (P13612 34-1032) above
T2 sequence (P05556 21-798): as the sequence (P05556 21-798) above

Row | peptide concentration at which binding of α4 β1 to VCAM-1 is significantly inhibited | Compound
48 | less than 100 μM | CC(=O)N[C@@H](Cc1c[nH]c2ccccc12)C(=O)N[C@@H](CC(C)C)C(=O)N[C@@H](CC(=O)O)C(=O)N[C@H](C(N)=O)C(C)C [SEQ ID NO:11, Ac-Trp-Leu-Asp-Val-amide] (Ac-WLDV-NH2)
